{"source": "patent US6867185B2", "about": "(Bristol-Myers Squibb Company, priority 2001, dated 2005)", "key": {"[1]": {"settings": "rcm bond, 1,2-DCE"}, "[2]": {"settings": "rcm bond, 1,2-dichloroethane"}, "[3]": {"target": "T1, HCV NS3/4A protease complex, BMS strain (genotype 1a) (Hepatitis C virus genotype 1a, UniProt P27958, C1454S/C1711G)", "T1 construct": "recombinant HCV NS3/4A protease complex (amino'acids 1027 to 1711); inferred from the pET21b vector and Ni-NTA purification; made in house; host or cells: Escherichia coli BL21 (DE3), pET21b", "T1 sequence (P27958 1027-1711 C1454S/C1711G, one chain of several)": "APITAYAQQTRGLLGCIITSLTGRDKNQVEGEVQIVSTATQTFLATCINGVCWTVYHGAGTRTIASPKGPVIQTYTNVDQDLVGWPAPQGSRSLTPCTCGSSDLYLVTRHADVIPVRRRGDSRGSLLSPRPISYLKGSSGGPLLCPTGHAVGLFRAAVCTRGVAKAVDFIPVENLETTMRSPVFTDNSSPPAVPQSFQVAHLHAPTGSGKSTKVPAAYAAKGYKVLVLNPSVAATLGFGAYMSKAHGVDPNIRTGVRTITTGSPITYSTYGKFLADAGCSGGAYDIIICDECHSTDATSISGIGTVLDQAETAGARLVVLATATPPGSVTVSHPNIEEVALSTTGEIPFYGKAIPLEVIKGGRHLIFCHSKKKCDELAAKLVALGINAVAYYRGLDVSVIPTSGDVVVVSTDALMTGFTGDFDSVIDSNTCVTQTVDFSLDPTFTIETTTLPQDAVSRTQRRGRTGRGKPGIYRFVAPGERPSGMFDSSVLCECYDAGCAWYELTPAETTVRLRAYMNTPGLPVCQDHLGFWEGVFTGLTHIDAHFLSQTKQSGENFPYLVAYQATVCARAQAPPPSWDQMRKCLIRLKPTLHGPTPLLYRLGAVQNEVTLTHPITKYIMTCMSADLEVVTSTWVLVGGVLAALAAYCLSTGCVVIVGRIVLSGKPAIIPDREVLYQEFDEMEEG", "assay": "Recombinant HCV NS3/4A protease complex FRET peptide assay (BMS strain)", "format": "biochemical", "settings": "IC50, HCV NS3/4A protease FRET assay in vitro; IC50 ranges", "outline": "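Enzyme was NS3/4A complex (aa 1027-1711) from genotype 1a BMS strain, carrying C1454S and C1711G mutations plus a three-lysine tail, expressed in E. coli and Ni-NTA/size-exclusion purified to >90% purity.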"}, "[4]": {"system": "HCV replicon in Huh7 cells", "assay": "HCV replicon cell-based assay (replicon FRET assay)", "design": "species or system HCV strain 1B", "settings": "Hepatitis C virus, Huh-7, HCV replicon cell assay; EC50 ranges", "outline": "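Huh7 cells carrying a genotype 1b subgenomic replicon (neo, NS3–NS5B) were treated with compound for 4 days at 37 °C in 0.5% DMSO final. Lysates with 10 μM RET S1 FRET peptide and 150 mM NaCl were read kinetically at 340/490 nm over 21 cycles. EC50 was derived as for the enzyme IC50.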"}, "[5]": {"settings": "from 1-{[1-(2(S)-tert-butoxycarbonylamino-oct-7-enoyl)-4-(7-methoxy-2-phenylquinolin-4(R)-yloxy)-pyrrolidine-2(S)-carbonyl]-1(R)-amino]-2(S)-vinyl-cyclopropanecarboxylic acid ethyl ester, 14-membered ring, Grubbs catalyst (275 + 225 mg)"}}, "note": "Read-outs that look alike come from different tables or passages of the source."}
{"molecule": "CCOC(=O)[C@@]12CC1/C=C/CCCC[C@H](C(=O)OC(C)(C)C)C(=O)N1C[C@H](Oc3cc(-c4ccccc4)nc4cc(OC)ccc34)C[C@@]1(N)C(=O)N2", "note": "(some centres unmarked)", "values": [{"measurement": "ring closure, isolated yield", "setting": "[1]; [5]", "result": 8, "unit": "%"}]}
{"molecule": "CCOC(=O)[C@@]12C[C@H]1/C=C/CC[C@H](NC(=O)OC(C)(C)C)C(=O)N1C[C@H](Oc3cc(-c4ccccc4)nc4cc(OC)ccc34)C[C@H]1C(=O)N2", "values": [{"measurement": "ring closure, isolated yield", "setting": "[1]; from 1-{[1-(2(S)-tert-butoxycarbonylamino-hex-5-enoyl)-4-(7-methoxy-2-phenyl-quinolin-4(R)-yloxy)-pyrroiidine-2(S)-carbonyl]-1(R)-amino}-2(S)-vinyl-cyclopropanecarboxylic acid ethyl ester, 12-membered ring, Grubbs catalyst (2 x 70 mg), 2.02 mM", "result": 46, "unit": "%"}]}
{"molecule": "CCOC(=O)[C@@]12C[C@H]1/C=C\\CCCCC[C@H](NC(=O)OC(C)(C)C)C(=O)N1C[C@H](Oc3cc(-c4ccccc4)nc4cc(OC)ccc34)C[C@H]1C(=O)N2", "values": [{"measurement": "ring closure, isolated yield", "setting": "[1]; from 1-{[1-(2(S)-tert-butoxycarbonylamino-non-8-enoyl)-4-(7-methoxy-2-phenylquinolin-4(R)-yloxy)-pyrrolidine-2(S)-carbonyl]-1(R)-amino]-2 (5)-vinylcyclopropanecarboxylic acid ethyl ester, 15-membered ring, Grubbs catalyst (3 x 150 mg), 0.83 mM", "result": 75, "unit": "%"}]}
{"molecule": "CCOC(=O)[C@@]12C[C@H]1/C=C\\CCCC[C@H](NC(=O)OC(C)(C)C)C(=O)N1C[C@H](Oc3cc(-c4ccccc4)nc4cc(OC)ccc34)C[C@H]1C(=O)N2", "values": [{"measurement": "ring closure, isolated yield", "setting": "[1]; [5]", "result": 20, "unit": "%"}, {"measurement": "ring closure, isolated yield", "setting": "[1]; from 1-{[1-(2(S)-tert-butoxycarbonylamino-oct-7-enoyl)-4-(7-methoxy-2-phenylquinolin-4(R)-yloxy)pyrrolidine-2(S)-carbonyl]-1(R)-amino]-2(S)-vinylcyclopropanecarboxylic acid ethyl ester, 14-membered ring, Grubbs catalyst (150 + 140 + 140 mg), 0.77 mM", "result": 52, "unit": "%"}]}
{"molecule": "CCOC(=O)[C@@]12C[C@H]1C=CCCCCC[C@H](NC(=O)OC(C)(C)C)C(=O)N1C[C@H](Oc3cc(-c4ccccc4)nc4cc(OC)ccc34)C[C@H]1C(=O)N2", "values": [{"measurement": "ring closure, yield of all isomers", "setting": "[2]; from C=CCCCCC[C@H](NC(=O)OC(C)(C)C)C(=O)N1C[C@H](Oc2cc(-c3ccccc3)nc3cc(OC)ccc23)C[C@H]1C(=O)N[C@]1(C(=O)OCC)C[C@H]1C=C, Grubbs catalyst, 0.829 mM, 83.0 °C, 15.0 h", "result": 75, "unit": "%"}]}
{"molecule": "CCOC(=O)[C@@]12C[C@H]1C=CCCCC[C@H](NC(=O)OC(C)(C)C)C(=O)N1C[C@H](Oc3cc(-c4ccccc4)nc4cc(OC)ccc34)C[C@H]1C(=O)N2", "values": [{"measurement": "ring closure, yield of all isomers", "setting": "[2]; from C=CCCCC[C@H](NC(=O)OC(C)(C)C)C(=O)N1C[C@H](Oc2cc(-c3ccccc3)nc3cc(OC)ccc23)C[C@H]1C(=O)N[C@]1(C(=O)OCC)C[C@H]1C=C, Grubbs catalyst, 0.772 mM, 83.0 °C, 21.0 h", "result": 52, "unit": "%"}, {"measurement": "ring closure, yield of all isomers", "setting": "[2]; from C=CCCCC[C@H](NC(=O)OC(C)(C)C)C(=O)N1C[C@H](Oc2cc(-c3ccccc3)nc3cc(OC)ccc23)C[C@H]1C(=O)N[C@]1(C(=O)OCC)C[C@H]1C=C, Grubbs catalyst, 2.02 mM, 83.0 °C, 15.0 h", "result": 28, "unit": "%"}]}
{"molecule": "CCOC(=O)[C@@]12C[C@H]1C=CCCCSC[C@@H](NC(=O)OC(C)(C)C)C(=O)N1C[C@H](Oc3cc(-c4ccccc4)nc4cc(OC)ccc34)C[C@H]1C(=O)N2", "values": [{"measurement": "ring closure, yield of all isomers", "setting": "[2]; from C=CCCCSC[C@@H](NC(=O)OC(C)(C)C)C(=O)N1C[C@H](Oc2cc(-c3ccccc3)nc3cc(OC)ccc23)C[C@H]1C(=O)N[C@]1(C(=O)OCC)C[C@H]1C=C, Grubbs II (tricyclohexylphosphine[1,3-bis(2,4,6-trimethylphenyl)-4,5-dihydroimidazol-2-ylidene][benzylidene]ruthenium(IV) dichloride), 3.48 mM, 45.0 °C, 21.0 h", "result": 42, "unit": "%"}]}
{"molecule": "CCOC(=O)[C@@]12C[C@H]1C=CCCC[C@H](NC(=O)OC(C)(C)C)C(=O)N1C[C@H](Oc3cc(-c4ccccc4)nc4cc(OC)ccc34)C[C@H]1C(=O)N2", "values": [{"measurement": "ring closure, yield of all isomers", "setting": "[2]; from C=CCCC[C@H](NC(=O)OC(C)(C)C)C(=O)N1C[C@H](Oc2cc(-c3ccccc3)nc3cc(OC)ccc23)C[C@H]1C(=O)N[C@]1(C(=O)OCC)C[C@H]1C=C, Grubbs catalyst, 2.02 mM, 83.0 °C, 15.0 h", "result": 49, "unit": "%"}]}
{"molecule": "CCOC(=O)[C@@]12C[C@H]1C=CCC[C@H](NC(=O)OC(C)(C)C)C(=O)N1C[C@H](Oc3cc(-c4ccccc4)nc4cc(OC)ccc34)C[C@H]1C(=O)N2", "values": [{"measurement": "ring closure, yield of all isomers", "setting": "[2]; from C=CCC[C@H](NC(=O)OC(C)(C)C)C(=O)N1C[C@H](Oc2cc(-c3ccccc3)nc3cc(OC)ccc23)C[C@H]1C(=O)N[C@]1(C(=O)OCC)C[C@H]1C=C, Grubbs catalyst, 2.02 mM, 83.0 °C, 15.0 h", "result": 46, "unit": "%"}]}
{"molecule": "COc1ccc2c(O[C@@H]3C[C@H]4C(=O)N[C@]5(C(=O)NS(=O)(=O)C6CC6)C[C@H]5C=CCCCCC[C@H](NC(=O)OC(C)(C)C)C(=O)N4C3)ccnc2c1", "values": [{"measurement": "ring closure, yield of all isomers", "setting": "[2]; from C=CCCCCC[C@H](NC(=O)OC(C)(C)C)C(=O)N1C[C@H](Oc2ccnc3cc(OC)ccc23)C[C@H]1C(=O)N[C@]1(C(=O)NS(=O)(=O)C2CC2)C[C@H]1C=C, Grubbs catalyst, 1.02 mM, 83.0 °C, 10.0 h", "result": 1.9, "unit": "%"}]}
{"molecule": "COc1ccc2c(O[C@@H]3C[C@H]4C(=O)N[C@]5(C(=O)NS(=O)(=O)C6CC6)CC5/C=C\\CCCS(=O)(=O)C[C@H](NC(=O)OC(C)(C)C)C(=O)N4C3)cc(-c3ccccc3)nc2c1", "note": "(stereo partly drawn) [Compound 32, (1S,4R,6S,14S,18R)-7-cis-[4-Cyclopropanesulfonylaminocarbonyl-18-(7-methoxy-2-phenyl-quinolin-4-yloxy)-2,12,12,15-tetraoxo-12,16-thia-3,16-diazatricyclo[14.3.0.0^4,6]nonadec-7-en-14-yl]carbamic acid tert-butyl ester]", "values": [{"measurement": "IC50", "setting": "[3]", "result": "< 50", "unit": "nM"}, {"measurement": "EC50", "setting": "[4]", "result": "< 50", "unit": "nM"}]}
{"molecule": "CC(C)(C)OC(=O)N[C@H]1CCCCC/C=C\\[C@@H]2C[C@@]2(C(=O)NS(=O)(=O)C2CC2)NC(=O)[C@@H]2C[C@@H](Oc3ccnc4c(C(F)(F)F)cccc34)CN2C1=O", "note": "[Compound 33, (1S,4R,6S,14S,18R)-7-cis-[4-Cyclopropanesulfonylaminocarbonyl-2,15-dioxo-18-(8-trifluoromethylquinol-in-4-yloxy)-3,16-diazatricyclo[14.3.0.04,6]nonadec-7-en-14-yl]-carbamic acid tert-butyl ester]", "values": [{"measurement": "IC50", "setting": "[3]", "result": "< 50", "unit": "nM"}, {"measurement": "EC50", "setting": "[4]", "result": "< 50", "unit": "nM"}]}
{"molecule": "(1S,4R,6S,12S,16R)-7-trans-12-tert-butoxycarbonylamino-16-(7-methoxy-2-phenylquinolin-4-yloxy)-2,13-dioxo-3,14-diazatricyclo[12.3.0.0^4,6]hepta-dec-7-ene-4-carboxylic acid ethyl ester", "values": [{"measurement": "ring closure, isolated yield", "setting": "[1]; 13-membered ring, Grubbs catalyst (2 x 75 mg)", "result": 49, "unit": "%"}]}
